In paper PMC11226696, “Ergothioneine promotes longevity and healthy aging in male mice” (GeroScience, 2024):

Target: T1, recombinant human histamine N-methyltransferase (rhHNMT) (Homo sapiens, UniProt P50135)
T1 construct: gene HNMT
Assay: recombinant enzyme assay, LC-MS/MS of histamine and methylhistamine; Lineweaver-Burk analysis
Type: biochemical

T1 sequence (P50135 whole entry): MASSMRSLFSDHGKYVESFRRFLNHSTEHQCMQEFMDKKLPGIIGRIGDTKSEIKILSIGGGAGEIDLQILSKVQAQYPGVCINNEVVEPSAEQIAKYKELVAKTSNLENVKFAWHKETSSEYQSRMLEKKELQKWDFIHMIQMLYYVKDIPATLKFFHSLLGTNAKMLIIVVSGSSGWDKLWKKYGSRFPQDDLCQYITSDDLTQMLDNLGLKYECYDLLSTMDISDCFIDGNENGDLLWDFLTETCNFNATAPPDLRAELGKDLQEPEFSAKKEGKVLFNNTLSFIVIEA

## C[N+](C)(C)[C@@H](Cc1c[nH]c(=S)[nH]1)C(=O)[O-] [ERGO, ergothioneine]
  recombinant enzyme assay, LC-MS/MS of histamine and methylhistamine; Lineweaver-: Lineweaver–Burk analysis revealed that ERGO competitively inhibited rhHNMT against histamine (Fig. 6c)
